# Assay results: article PMC8591201, “Anti-Tumor Activity of AZD4547 Against NTRK1 Fusion Positive Cancer Cells Through Inhibition of NTRKs” (Frontiers in Oncology, 2021)
# What was measured:
# [1] = molecular target: T1, TRKB (Homo sapiens, UniProt Q16620); assay: radiometric biochemical kinase assay
# T1 construct: gene NTRK2
# [2] = system: T2, TRKA G667C; assay: cells; set-up: species or system Ba/F3; CellTiter-Glo anti-proliferation of Ba/F3 cells transformed with ETV6-NTRK fusions; conditions: Mus musculus, BaF3, 72 h; read-out: AZD4547 GI50
# T2 construct: ETV6 (1-336)-NTRK1 kinase domain (434-790) fusion expressed in Ba/F3
# Procedure: (§1) To obtain the GI50 value of a substance, cell viability was measured using MTT (G4000, Promega, USA) for KM12(Luc) cell and Cell titer glo (G7572, Promega, USA) for other cell lines. For adherent cells, cells were seeded at 5,000 cells/well in a 96-well plate and treated with a substance one day after cell seeding. For suspension cells, 10,000 cells/well were seeded and the substance was treated after 4 h stabilization of cells. The substance was treated at 10 points of 1:3 serial dilution (0–100 µmol/L) for 72 h. For MTT assay, 15 µL dye solution was added to each well and incubated 4 h at 37°C. 100 µL of solubilization solution was added and followed 1 hr incubation. Absorbance at 570 nm of each well was recorded using EnVision microplate reader (Perkin Elmer). For Cell titer glo assay, Cell titer glo reagent was treated in each well and measured the luminescence by EnVision microplate reader (Perkin Elmer). Viable cells in each well were normalized by using 0.5% DMSO-treated wells (100%). The inhibitor dose−response curve was fitted and GI50 values were calculated using Prism 7.0 software (GraphPad). All assays were performed in duplicate and the standard deviation (SD) was determined from two independent experiments. To investigate the inhibitory activity of AZD4547 against clinically relevant TRK mutants which have resistance to the known TRK inhibitors ([8], [44]), we established Ba/F3 cell lines harboring the ETV6-NTRKs fusion genes (NTRK1, NTRK1G595R, NTRK1G667A, NTRK1G667C, NTRK1G667S and NTRK2) ( Supplementary Figure 2 ). The mutation status of each established cell line was confirmed by sequencing of its cDNA ( Supplementary Figure 2 ). The anti-proliferation activity of AZD4547 was then measured in each cell line ( Figure 2A and Table S2 ). […] However, AZD4547 has no inhibitory activity against Ba/F3 harboring clinically relevant TRKs mutants including TRKA G595R, TRKA G667S, TRKA G667C and TRKA G667A. We next evaluated if AZD4547 is capable of suppressing the phosphorylation of TRKA/B in Ba/F3 cell lines ( Figure 2B ). […] Also, phosphorylation of TRKA/B is almost completely abolished using 1 µM of AZD4547. […] (A) Summary of GI50s of AZD4547 against Ba/F3: TRKA mutants or TRKB. Cell viability after 72 h exposure to the indicated inhibitors, determined by using a cell titer glo assay in duplicate mode. Data was plotted as mean GI50 ± SD of two independent experiments. (B) AZD4547 inhibits phosphorylation of TRKA/B and PLC-gamma in Ba/F3 harboring TRKA and TRKB, respectively. […] Data are representative of three independent experiments.
# [3] = system: T3, TRKB; assay: cells; set-up: species or system Ba/F3; CellTiter-Glo anti-proliferation of Ba/F3 cells transformed with ETV6-NTRK fusions; conditions: Mus musculus, BaF3, 72 h; read-out: AZD4547 GI50
# T3 construct: ETV6 (1-336)-NTRK2 kinase domain (455-822) fusion expressed in Ba/F3
# Procedure: as §1
# [4] = system: T4, TRKA; assay: cells; set-up: species or system Ba/F3; CellTiter-Glo anti-proliferation of Ba/F3 cells transformed with ETV6-NTRK fusions; conditions: Mus musculus, BaF3, 72 h; read-out: AZD4547 GI50
# T4 construct: ETV6 (1-336)-NTRK1 kinase domain (434-790) fusion expressed in Ba/F3
# Procedure: as §1
# [5] = system: T5, TRKA G667S; assay: cells; set-up: species or system Ba/F3; CellTiter-Glo anti-proliferation of Ba/F3 cells transformed with ETV6-NTRK fusions; conditions: Mus musculus, BaF3, 72 h; read-out: AZD4547 GI50
# T5 construct: ETV6 (1-336)-NTRK1 kinase domain (434-790) fusion expressed in Ba/F3
# Procedure: as §1
# [6] = system: T6, TRKA G595R; assay: cells; set-up: species or system Ba/F3; CellTiter-Glo anti-proliferation of Ba/F3 cells transformed with ETV6-NTRK fusions; conditions: Mus musculus, BaF3, 72 h; read-out: AZD4547 GI50
# T6 construct: ETV6 (1-336)-NTRK1 kinase domain (434-790) fusion expressed in Ba/F3
# Procedure: as §1
# T1 sequence (Q16620 32-822): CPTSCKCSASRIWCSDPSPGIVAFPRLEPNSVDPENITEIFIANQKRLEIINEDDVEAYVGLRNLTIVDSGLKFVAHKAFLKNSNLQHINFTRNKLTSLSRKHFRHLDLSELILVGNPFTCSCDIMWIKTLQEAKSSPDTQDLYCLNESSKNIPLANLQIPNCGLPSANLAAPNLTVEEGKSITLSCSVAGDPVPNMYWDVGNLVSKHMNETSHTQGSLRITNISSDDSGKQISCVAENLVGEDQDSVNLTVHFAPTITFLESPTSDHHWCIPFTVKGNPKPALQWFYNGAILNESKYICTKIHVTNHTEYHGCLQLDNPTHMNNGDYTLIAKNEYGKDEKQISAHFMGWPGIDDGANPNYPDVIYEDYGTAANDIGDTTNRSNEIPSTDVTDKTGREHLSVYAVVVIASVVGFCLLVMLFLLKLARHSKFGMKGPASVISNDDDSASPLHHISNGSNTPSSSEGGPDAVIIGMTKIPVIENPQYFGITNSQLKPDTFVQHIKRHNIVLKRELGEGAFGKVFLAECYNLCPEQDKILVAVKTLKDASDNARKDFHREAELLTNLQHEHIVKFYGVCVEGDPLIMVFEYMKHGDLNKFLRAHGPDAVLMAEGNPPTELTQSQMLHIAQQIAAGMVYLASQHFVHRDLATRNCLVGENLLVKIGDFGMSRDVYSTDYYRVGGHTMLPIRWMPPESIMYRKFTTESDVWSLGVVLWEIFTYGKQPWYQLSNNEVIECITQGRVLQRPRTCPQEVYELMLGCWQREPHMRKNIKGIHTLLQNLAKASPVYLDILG
compound,measurement,setting,value
COc1cc(CCc2cc(NC(=O)c3ccc(N4C[C@@H](C)N[C@@H](C)C4)cc3)n[nH]2)cc(OC)c1 [AZD4547],IC50,[1],7.6 nM
same,GI50,[2],> 2000 nM
same,GI50,[3],104 ± 6.1 nM
same,GI50,[4],66 ± 11.5 nM
same,GI50,[5],> 2000 nM
same,GI50,[6],> 2000 nM
